# In US10730863B2, “Bridged bicyclic compounds as farnesoid X receptor modulators” (BRISTOL-MYERS SQUIBB COMPANY, priority 2017, dated 2020):
# Biological target: FXR (Homo sapiens (Human), UniProt Q96RI1)
# Test: FXR EC50 (FXR agonist activity reported with each example)
# Assay type: cell-based
# FXR, sequence (Q96RI1 262-486): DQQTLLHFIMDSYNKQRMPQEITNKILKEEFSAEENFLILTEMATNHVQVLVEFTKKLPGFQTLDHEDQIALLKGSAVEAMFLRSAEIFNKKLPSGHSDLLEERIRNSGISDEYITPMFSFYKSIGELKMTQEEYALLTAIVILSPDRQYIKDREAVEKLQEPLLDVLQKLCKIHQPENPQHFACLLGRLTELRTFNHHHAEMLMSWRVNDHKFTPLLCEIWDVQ
row,EC50 [nM],Structure (SMILES)
1,2500,"COC(=O)c1ccc(-c2noc(C34CCC(C=Cc5c(-c6c(Cl)cccc6Cl)noc5C5CC5)(CC3)C4)n2)cc1 [Intermediate 226C, methyl 4-(5-(4-(2-(5-cyclopropyl-3-(2,6-dichlorophenyl)isoxazol-4-yl)vinyl)bicyclo[2.2.1]heptan-1-yl)-1,2,4-oxadiazol-3-yl)benzoate]"
2,25,"O=C(O)c1cc(-c2noc(C34CCC(OCc5c(-c6c(Cl)cncc6Cl)noc5C5CC5)(CC3)CC4)n2)cc(C(F)(F)F)c1 [Example 235, 3-(5-(4-((5-cyclopropyl-3-(3,5-dichloropyridin-4-yl)isoxazol-4-yl)methoxy)bicyclo[2.2.2]octan-1-yl)-1,2,4-oxadiazol-3-yl)-5-(trifluoromethyl)benzoic acid]"
3,48,"CCOc1cc(C(=O)O)nc2cc(F)c(OCC34CCC(OCc5c(-c6c(Cl)cncc6Cl)noc5C5CC5)(CC3)CC4)cc12 [Example 313, 6-((4-((5-cyclopropyl-3-(3,5-dichloropyridin-4-yl)isoxazol-4-yl)methoxy)bicyclo[2.2.2]octan-1-yl)methoxy)-4-ethoxy-7-fluoroquinoline-2-carboxylic acid]"
4,56,"COc1ccc(-c2noc(C34CCC(OCc5c(-c6c(Cl)cncc6Cl)noc5C5CC5)(CC3)CC4)n2)cc1C(=O)O [Example 69, 5-(5-(4-((5-Cyclopropyl-3-(3,5-dichloropyridin-4-yl)isoxazol-4-yl)methoxy)bicyclo[2.2.2]octan-1-yl)-1,2,4-oxadiazol-3-yl)-2-methoxybenzoic acid]"
5,560,"Cc1nc(C23CCC(COCc4c(-c5c(Cl)cccc5Cl)noc4C4CC4)(CC2)CC3)sc1C(=O)O [Example 179, 2-(4-(((5-cyclopropyl-3-(2,6-dichlorophenyl)isoxazol-4-yl)methoxy)methyl)bicyclo[2.2.2]octan-1-yl)-4-methylthiazole-5-carboxylic acid]"
6,620,"NC(=O)c1cnc(OCC23CCC(OCc4c(-c5c(Cl)cncc5Cl)noc4C4CC4)(CC2)CC3)c(C(F)(F)F)c1 [Example 278, 6-((4-((5-cyclopropyl-3-(3,5-dichloropyridin-4-yl)isoxazol-4-yl)methoxy)bicyclo[2.2.2]octan-1-yl)methoxy)-5-(trifluoromethyl)nicotinamide]"
7,3100,"O=C(O)Cc1noc(C23CCC(OCc4c(-c5c(Cl)cccc5Cl)noc4C4CC4)(CC2)CC3)n1 [Example 72, 2-(5-(4-((5-cyclopropyl-3-(2,6-dichlorophenyl)isoxazol-4-yl)methoxy)bicyclo[2.2.2]octan-1-yl)-1,2,4-oxadiazol-3-yl)acetic acid]"
8,1200,"O=C(O)c1ccc(-c2noc(C34CCC(OCc5c(-c6ccccc6OC(F)(F)F)noc5C5CC5)(CC3)CC4)n2)cn1 [Example 12, 5-(5-(4-((5-cyclopropyl-3-(2-(trifluoromethoxy)phenyl)isoxazol-4-yl)methoxy)bicyclo[2.2.2]octan-1-yl)-1,2,4-oxadiazol-3-yl)picolinic acid]"
9,130,"O=C(O)c1ncc(OCC23CCC(OCc4c(-c5c(Cl)cncc5Cl)noc4C4CC4)(CC2)CC3)cc1C(F)(F)F [Example 285, 5-((4-((5-cyclopropyl-3-(3,5-dichloropyridin-4-yl)isoxazol-4-yl)methoxy)bicyclo[2.2.2]octan-1-yl)methoxy)-3-(trifluoromethyl)picolinic acid]"
10,4,"O=C(O)c1cc(F)cn2c(C#CC34CCC(OCc5c(-c6c(Cl)cncc6Cl)noc5C5CC5)(CC3)CC4)cnc12 [Example 520, 3-((4-((5-cyclopropyl-3-(3,5-dichloropyridin-4-yl)isoxazol-4-yl)methoxy)bicyclo[2.2.2]octan-1-yl)ethynyl)-6-fluoroimidazo[1,2-a]pyridine-8-carboxylic acid]"
11,170,"O=C(O)c1ccc(-c2noc(C34CCC(OCc5c(-c6ccccc6OC(F)(F)F)noc5C5CC5)(CC3)CC4)n2)cc1 [Example 2, 4-(5-(4-((5-cyclopropyl-3-(2-(trifluoromethoxy)phenyl)isoxazol-4-yl)methoxy)bicyclo[2.2.2]octan-1-yl)-1,2,4-oxadiazol-3-yl)benzoic acid]"
12,70,"O=C(O)c1cc(OCC23CCC(/C=C/c4c(-c5c(Cl)cncc5Cl)noc4C4CC4)(CC2)CO3)cc(C(F)(F)F)c1 [Example 468, (E)-3-((4-(2-(5-cyclopropyl-3-(3,5-dichloropyridin-4-yl)isoxazol-4-yl)vinyl)-2-oxabicyclo[2.2.2]octan-1-yl)methoxy)-5-(trifluoromethyl)benzoic acid]"
13,1300,"O=C(O)c1csc(C23CCC(COCc4c(-c5c(Cl)cccc5Cl)noc4C4CC4)(CC2)CC3)n1 [Example 162, 2-(4-(((5-cyclopropyl-3-(2,6-dichlorophenyl)isoxazol-4-yl)methoxy)methyl)bicyclo[2.2.2]octan-1-yl)thiazole-4-carboxylic acid]"
14,36,"O=C(O)c1cc(F)c2nc(C34CCC(OCc5c(-c6c(Cl)cccc6Cl)noc5C5CC5)(CC3)CC4)sc2c1 [Example 16, 2-(4-((5-cyclopropyl-3-(2,6-dichlorophenyl)isoxazol-4-yl)methoxy)bicyclo[2.2.2]octan-1-yl)-4-fluorobenzo[d]thiazole-6-carboxylic acid]"
15,170,"COc1cc(OCC23CCC(OCc4c(-c5c(Cl)cncc5Cl)noc4C4CC4)(CC2)CC3)cnc1C(=O)O [Example 335, 5-((4-((5-cyclopropyl-3-(3,5-dichloropyridin-4-yl)isoxazol-4-yl)methoxy)bicyclo[2.2.2]octan-1-yl)methoxy)-3-methoxypicolinic acid]"
16,23,"O=C(O)c1cc(C(F)(F)F)cc(OCC23CCC(OCc4c(-c5c(Cl)cncc5Cl)noc4C4CC4)(CC2)CC3)n1 [Example 280, 6-((4-((5-cyclopropyl-3-(3,5-dichloropyridin-4-yl)isoxazol-4-yl)methoxy)bicyclo[2.2.2]octan-1-yl)methoxy)-4-(trifluoromethyl)picolinic acid]"
17,2700,"O=C(O)c1ccc2[nH]c(C34CCC(OCc5c(-c6c(Cl)cccc6Cl)noc5C5CC5)(CC3)CC4)nc2c1 [Example 17, 2-(4-((5-cyclopropyl-3-(2,6-dichlorophenyl)isoxazol-4-yl)methoxy)bicyclo[2.2.2]octan-1-yl)-1H-benzo[d]imidazole-5-carboxylic acid]"
18,910,"O=C(O)c1ccc2nc(C34CCC(COCc5c(-c6c(Cl)cccc6Cl)noc5C5CC5)(CC3)CC4)oc2c1 [Example 178, 2-(4-(((5-cyclopropyl-3-(2,6-dichlorophenyl)isoxazol-4-yl)methoxy)methyl)bicyclo[2.2.2]octan-1-yl)benzo[d]oxazole-6-carboxylic acid]"

row,Structure (SMILES),EC50 [nM]
1,O=C(O)c1cc(C#CC23CCC(OCc4c(-c5c(Cl)cncc5Cl)noc4C4CC4)(CC2)CC3)cc(OC(F)(F)F)c1 [Example 378],130
2,"O=C(O)c1ccnc(OCC23CCC(OCc4c(-c5c(Cl)cccc5Cl)noc4C4CC4)(CC2)CC3)n1 [Example 108, 2-((4-((5-cyclopropyl-3-(2,6-dichlorophenyl)isoxazol-4-yl)methoxy)bicyclo[2.2.2]octan-1-yl)methoxy)pyrimidine-4-carboxylic acid]",540
3,"COc1cncc(Cl)c1-c1noc(C2CC2)c1/C=C/C12CCC(c3ccc(C(C)(C)C(=O)O)cc3)(CC1)OC2 [Example 483, (E)-2-(4-(4-(2-(3-(3-chloro-5-methoxypyridin-4-yl)-5-cyclopropylisoxazol-4-yl)vinyl)-2-oxabicyclo[2.2.2]octan-1-yl)phenyl)-2-methylpropanoic acid]",4500
4,"O=C(O)c1cc(F)cc(OCC23CCC(OCc4c(-c5c(Cl)cccc5Cl)noc4C4CC4)(CC2)CC3)c1 [Example 94, 3-((4-((5-cyclopropyl-3-(2,6-dichlorophenyl)isoxazol-4-yl)methoxy)bicyclo[2.2.2]octan-1-yl)methoxy)-5-fluorobenzoic acid]",18
5,O=C(O)[C@@H]1CCC[C@H](OCC23CCC(OCc4c(-c5ccccc5OC(F)(F)F)noc4C4CC4)(CC2)CC3)C1 [Example 81],4700
6,"O=C(O)c1cc(OCC23CCC(/C=C/c4c(-c5c(Cl)cncc5Cl)noc4C4CC4)(CC2)OC3)cc(C(F)(F)F)c1 [Example 473, (E)-3-((1-(2-(5-cyclopropyl-3-(3,5-dichloropyridin-4-yl)isoxazol-4-yl)vinyl)-2-oxabicyclo[2.2.2]octan-4-yl)methoxy)-5-(trifluoromethyl)benzoic acid]",320
7,O=C(O)c1cc(C(F)(F)F)c2cc(C#CC34CCC(OCc5c(-c6c(Cl)cncc6Cl)noc5C5CC5)(CC3)CC4)ccc2n1 [Example 364],42
8,"O=C(O)c1cc(OCC23CCC(OCc4c(-c5c(Cl)cncc5Cl)noc4C4CC4)(CC2)CC3)cc(C(F)(F)F)c1 [Example 103, 3-((4-((5-cyclopropyl-3-(3,5-dichloropyridin-4-yl)isoxazol-4-yl)methoxy)bicyclo[2.2.2]octan-1-yl)methoxy)-5-(trifluoromethyl)benzoic acid]",4
9,COc1ccc(C(=O)O)c2ccc(C34CCC(OCc5c(-c6c(Cl)cncc6Cl)noc5C5CC5)(CC3)CC4)nc12 [Example 371],18
10,COC(=O)c1ccc(-c2noc(C34CCC(OCc5c(-c6ccccc6OC(F)(F)F)noc5C(C)C)(CC3)CC4)n2)cc1 [Example 35],2400
11,"O=C(O)c1ccnc(C23CCC(OCc4c(-c5c(Cl)cccc5Cl)noc4C4CC4)(CC2)CC3)c1 [Example 137, 2-(4-((5-cyclopropyl-3-(2,6-dichlorophenyl)isoxazol-4-yl)methoxy)bicyclo[2.2.2]octan-1-yl)isonicotinic acid]",420
12,"O=C(O)c1ccc(OCC23CCC(OCc4c(-c5c(Cl)cccc5Cl)noc4C4CC4)(CC2)CC3)cc1 [Example 99, 4-((4-((5-cyclopropyl-3-(2,6-dichlorophenyl)isoxazol-4-yl)methoxy)bicyclo[2.2.2]octan-1-yl)methoxy) benzoic acid]",140
13,"CC(C)Oc1cc(C(=O)O)nc2ccc(OCC34CCC(/C=C/c5c(-c6c(Cl)cncc6Cl)noc5C5CC5)(CC3)CO4)cc12 [Example 501, (E)-6-((4-(2-(5-cyclopropyl-3-(3,5-dichloropyridin-4-yl)isoxazol-4-yl)vinyl)-2-oxabicyclo[2.2.2]octan-1-yl)methoxy)-4-isopropoxyquinoline-2-carboxylic acid]",54
